# Experimental data published in the supplement of paper PMC10307832.
# Experiments:
# Assay in all cases: relative viability (nuclei count vs DMSO), 5 days (fraction); higher = more cells survive
# LXF-289 = system: LXF-289
# Method in brief: (§1)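 The day after seeding in 1536-well plates, lung cancer cell lines were treated by pin tool with a single drug, or with a fixed anchor-drug dose together with five library-drug doses (not always all listed) in √10 steps. After 5 days, a combined fix-and-stain solution (final 0.05% Triton X-100, 1% formaldehyde, 1 ug/ml Hoechst) was added. Nuclei counted on 4× images gave relative viability as treated counts over vehicle counts, reported as the median of duplicate plates.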
# NCI-H1944 = system: NCI-H1944
# Method in brief: as §1
# NCI-H2170 = system: NCI-H2170
# Method in brief: as §1
# ChaGo-K-1 = system: ChaGo-K-1
# Method in brief: as §1
# NCI-H647 = system: NCI-H647
# Method in brief: as §1
# EKVX = system: EKVX
# Method in brief: as §1
# NCI-H661 = system: NCI-H661
# Method in brief: as §1
# BEN = system: BEN
# Method in brief: as §1
# HCC-827 = system: HCC-827
# Method in brief: as §1
# RERF-LC-KJ = system: RERF-LC-KJ
# Method in brief: as §1
# NCI-H1355 = system: NCI-H1355
# Method in brief: as §1
# LK-2 = system: LK-2
# Method in brief: as §1
# NCI-H2126 = system: NCI-H2126
# Method in brief: as §1
# PC-14 = system: PC-14
# Method in brief: as §1
# HOP-62 = system: HOP-62
# Method in brief: as §1
# NCI-H1437 = system: NCI-H1437
# Method in brief: as §1
# NCI-H727 = system: NCI-H727
# Method in brief: as §1
# NCI-H1993 = system: NCI-H1993
# Method in brief: as §1
# SK-MES-1 = system: SK-MES-1
# Method in brief: as §1
# NCI-H1666 = system: NCI-H1666
# Method in brief: as §1
# LOU-NH91 = system: LOU-NH91
# Method in brief: as §1
# LCLC-103H = system: LCLC-103H
# Method in brief: as §1
# NCI-H441 = system: NCI-H441
# Method in brief: as §1
smiles,measurement,setting,value
CCNC(=O)c1noc(-c2cc(C(C)C)c(O)cc2O)c1-c1ccc(CN2CCOCC2)cc1 [Luminespib] + COc1cc2c(Oc3ccc(NC(=O)C4(C(=O)Nc5ccc(F)cc5)CC4)cc3F)ccnc2cc1OCCCN1CCOCC1 [Foretinib] (partner 0.25 µM),relative viability,LXF-289; first compound 0.002 µM,0.993
same,relative viability,LXF-289; first compound 0.006325 µM,0.979
same,relative viability,LXF-289; first compound 0.02 µM,1.2
same,relative viability,LXF-289; first compound 0.06325 µM,0.547
same,relative viability,LXF-289; first compound 0.2 µM,0.323
same,relative viability,NCI-H1944; first compound 0.002 µM,0.937
same,relative viability,NCI-H1944; first compound 0.006325 µM,0.884
same,relative viability,NCI-H1944; first compound 0.02 µM,0.653
same,relative viability,NCI-H1944; first compound 0.06325 µM,0.767
same,relative viability,NCI-H1944; first compound 0.2 µM,0.419
same,relative viability,NCI-H2170; first compound 0.002 µM,0.986
same,relative viability,NCI-H2170; first compound 0.006325 µM,0.973
same,relative viability,NCI-H2170; first compound 0.02 µM,0.806
same,relative viability,NCI-H2170; first compound 0.06325 µM,0.72
same,relative viability,NCI-H2170; first compound 0.2 µM,0.181
same,relative viability,ChaGo-K-1; first compound 0.002 µM,0.889
same,relative viability,ChaGo-K-1; first compound 0.006325 µM,0.92
same,relative viability,ChaGo-K-1; first compound 0.02 µM,1.02
same,relative viability,ChaGo-K-1; first compound 0.06325 µM,0.37
same,relative viability,ChaGo-K-1; first compound 0.2 µM,0.299
same,relative viability,NCI-H647; first compound 0.002 µM,1.32
same,relative viability,NCI-H647; first compound 0.006325 µM,1.12
same,relative viability,NCI-H647; first compound 0.02 µM,1.32
same,relative viability,NCI-H647; first compound 0.06325 µM,0.131
same,relative viability,NCI-H647; first compound 0.2 µM,0.0972
same,relative viability,EKVX; first compound 0.002 µM,0.75
same,relative viability,EKVX; first compound 0.006325 µM,0.453
same,relative viability,EKVX; first compound 0.06325 µM,0.815
same,relative viability,EKVX; first compound 0.2 µM,0.108
same,relative viability,NCI-H661; first compound 0.002 µM,1.11
same,relative viability,NCI-H661; first compound 0.006325 µM,0.992
same,relative viability,NCI-H661; first compound 0.02 µM,0.922
same,relative viability,NCI-H661; first compound 0.06325 µM,0.597
same,relative viability,NCI-H661; first compound 0.2 µM,0.301
same,relative viability,BEN; first compound 0.002 µM,0.63
same,relative viability,BEN; first compound 0.006325 µM,0.71
same,relative viability,BEN; first compound 0.02 µM,0.362
same,relative viability,BEN; first compound 0.06325 µM,0.531
same,relative viability,BEN; first compound 0.2 µM,0.222
same,relative viability,HCC-827; first compound 0.002 µM,1.06
same,relative viability,HCC-827; first compound 0.006325 µM,0.971
same,relative viability,HCC-827; first compound 0.02 µM,0.869
same,relative viability,HCC-827; first compound 0.06325 µM,0.692
same,relative viability,HCC-827; first compound 0.2 µM,0.152
same,relative viability,RERF-LC-KJ; first compound 0.002 µM,0.875
same,relative viability,RERF-LC-KJ; first compound 0.006325 µM,0.832
same,relative viability,RERF-LC-KJ; first compound 0.02 µM,0.71
same,relative viability,RERF-LC-KJ; first compound 0.06325 µM,0.861
same,relative viability,RERF-LC-KJ; first compound 0.2 µM,0.445
same,relative viability,NCI-H1355; first compound 0.002 µM,1.02
same,relative viability,NCI-H1355; first compound 0.006325 µM,0.912
same,relative viability,NCI-H1355; first compound 0.02 µM,0.671
same,relative viability,NCI-H1355; first compound 0.06325 µM,0.927
same,relative viability,NCI-H1355; first compound 0.2 µM,0.622
same,relative viability,LK-2; first compound 0.002 µM,1.66
same,relative viability,LK-2; first compound 0.006325 µM,1.44
same,relative viability,LK-2; first compound 0.02 µM,0.604
same,relative viability,LK-2; first compound 0.06325 µM,0.858
same,relative viability,LK-2; first compound 0.2 µM,0.88
same,relative viability,NCI-H2126; first compound 0.002 µM,0.865
same,relative viability,NCI-H2126; first compound 0.006325 µM,1.07
same,relative viability,NCI-H2126; first compound 0.02 µM,0.882
same,relative viability,NCI-H2126; first compound 0.06325 µM,0.589
same,relative viability,NCI-H2126; first compound 0.2 µM,0.207
same,relative viability,PC-14; first compound 0.002 µM,0.967
same,relative viability,PC-14; first compound 0.006325 µM,0.882
same,relative viability,PC-14; first compound 0.02 µM,0.945
same,relative viability,PC-14; first compound 0.06325 µM,0.567
same,relative viability,PC-14; first compound 0.2 µM,0.125
same,relative viability,HOP-62; first compound 0.002 µM,1.09
same,relative viability,HOP-62; first compound 0.006325 µM,1.11
same,relative viability,HOP-62; first compound 0.02 µM,1.17
same,relative viability,HOP-62; first compound 0.06325 µM,0.587
same,relative viability,HOP-62; first compound 0.2 µM,0.145
same,relative viability,NCI-H1437; first compound 0.002 µM,1.3
same,relative viability,NCI-H1437; first compound 0.006325 µM,1.2
same,relative viability,NCI-H1437; first compound 0.02 µM,1.33
same,relative viability,NCI-H1437; first compound 0.06325 µM,1.24
same,relative viability,NCI-H1437; first compound 0.2 µM,0.526
same,relative viability,NCI-H727; first compound 0.002 µM,1.04
same,relative viability,NCI-H727; first compound 0.006325 µM,0.834
same,relative viability,NCI-H727; first compound 0.02 µM,0.669
same,relative viability,NCI-H727; first compound 0.06325 µM,0.219
same,relative viability,NCI-H727; first compound 0.2 µM,0.332
same,relative viability,NCI-H1993; first compound 0.002 µM,0.772
same,relative viability,NCI-H1993; first compound 0.006325 µM,0.779
same,relative viability,NCI-H1993; first compound 0.02 µM,0.632
same,relative viability,NCI-H1993; first compound 0.06325 µM,0.549
same,relative viability,NCI-H1993; first compound 0.2 µM,0.482
same,relative viability,SK-MES-1; first compound 0.002 µM,0.829
same,relative viability,SK-MES-1; first compound 0.006325 µM,0.804
same,relative viability,SK-MES-1; first compound 0.02 µM,0.777
same,relative viability,SK-MES-1; first compound 0.06325 µM,0.138
same,relative viability,SK-MES-1; first compound 0.2 µM,0.156
same,relative viability,NCI-H1666; first compound 0.002 µM,0.988
same,relative viability,NCI-H1666; first compound 0.006325 µM,0.904
same,relative viability,NCI-H1666; first compound 0.02 µM,0.986
same,relative viability,NCI-H1666; first compound 0.06325 µM,0.94
same,relative viability,NCI-H1666; first compound 0.2 µM,0.967
same,relative viability,LOU-NH91; first compound 0.002 µM,0.922
same,relative viability,LOU-NH91; first compound 0.006325 µM,0.95
same,relative viability,LOU-NH91; first compound 0.02 µM,0.577
same,relative viability,LOU-NH91; first compound 0.06325 µM,0.378
same,relative viability,LOU-NH91; first compound 0.2 µM,0.298
same,relative viability,LCLC-103H; first compound 0.002 µM,0.826
same,relative viability,LCLC-103H; first compound 0.006325 µM,0.778
same,relative viability,LCLC-103H; first compound 0.02 µM,0.757
same,relative viability,LCLC-103H; first compound 0.06325 µM,0.87
same,relative viability,LCLC-103H; first compound 0.2 µM,0.362
same,relative viability,NCI-H441; first compound 0.002 µM,0.927
same,relative viability,NCI-H441; first compound 0.006325 µM,0.92
same,relative viability,NCI-H441; first compound 0.02 µM,1.51
same,relative viability,NCI-H441; first compound 0.06325 µM,0.196
same,relative viability,NCI-H441; first compound 0.2 µM,0.149
